In US12024707B2, “Methods and compositions for modulating lncRNAs and methods of treatment based on lncRNA expression” (Washington University, priority 2020, dated 2024):
Where “and” joins values, the source holds several entries; their conditions need not be identical. Equal values may be shown once. Where a name gives a salt, the structure may show the parent alone. Read-outs that look alike come from different tables or passages of the source.

Tested on: HT29 RAMS11 overexpressing cells
Test: High-throughput viability assay (resazurin), 119 FDA-approved anticancer drugs, RAMS11 overexpressing cells (Clone1, Clone2)
[1] = OE1 (RAMS11 overexpression clone 1), 0.1 uM drug, 72 h, vs empty vector control
[2] = OE1 (RAMS11 overexpression clone 1), 1 uM drug, 72 h, vs empty vector control
[3] = OE1 (RAMS11 overexpression clone 1), 10 uM drug, 72 h, vs empty vector control
[4] = OE2 (RAMS11 overexpression clone 2), 0.1 uM drug, 72 h, vs empty vector control
[5] = OE2 (RAMS11 overexpression clone 2), 1 uM drug, 72 h, vs empty vector control
[6] = OE2 (RAMS11 overexpression clone 2), 10 uM drug, 72 h, vs empty vector control

Row | Compound | Viability Fold Change [1] | Viability Fold Change [2] | Viability Fold Change [3] | Viability Fold Change [4] | Viability Fold Change [5] | Viability Fold Change [6] | increase in drug resistance in HT29 RAMS11 overexpressing cells (topoisomerase inhibitors, vs empty vector cells) | Viability Fold Change
1 | CC[C@]1(O)C[C@@H]2CN(CCc3c([nH]c4ccccc34)[C@@](C(=O)OC)(c3cc4c(cc3OC)N(C)[C@H]3[C@@](O)(C(=O)OC)[C@H](OC(C)=O)[C@]5(CC)C=CCN6CC[C@]43[C@@H]65)C2)C1 [Vinblastine sulfate] | 3.198 | 3.402 | 3.682 | 2.825 | 3.412 | 3.815 | – | –
2 | Cc1cn(-c2cc(NC(=O)c3ccc(C)c(Nc4nccc(-c5cccnc5)n4)c3)cc(C(F)(F)F)c2)cn1 [Nilotinib] | 0.8679 | 0.749 | 0.7379 | 1.013 | 0.888 | 0.7462 | – | –
3 | C/C(=C\c1csc(C)n1)[C@@H]1C[C@@H]2O[C@]2(C)CCC[C@H](C)[C@H](O)[C@@H](C)C(=O)C(C)(C)[C@@H](O)CC(=O)N1 [Ixabepilone] | 1.657 | 1.943 | 1.722 | 1.773 | 2.017 | 2.056 | – | –
4 | CS(=O)(=O)OCCCCOS(C)(=O)=O [Busulfan] | 1.001 | 0.9365 | 0.8448 | 0.977 | 0.9369 | 0.871 | – | –
5 | CCc1c2c(nc3ccc(OC(=O)N4CCC(N5CCCCC5)CC4)cc13)-c1cc3c(c(=O)n1C2)COC(=O)[C@]3(O)CC [Irinotecan HCl] | 0.9198 | 0.9608 | 1.151 | 0.9682 | 0.9711 | 1.068 | – | –
6 | CC(=O)O[C@H]1C(=O)[C@@]2(C)[C@H]([C@H](OC(=O)c3ccccc3)[C@]3(O)C[C@H](OC(=O)[C@H](O)[C@@H](NC(=O)c4ccccc4)c4ccccc4)C(C)=C1C3(C)C)[C@]1(OC(C)=O)CO[C@@H]1C[C@@H]2O [Paclitaxel] | 2.775 | 3.5 | 3.241 | 2.662 | 3.065 | 3.061 | – | –
7 | Cc1ccc(Nc2nccc(N(C)c3ccc4c(C)n(C)nc4c3)n2)cc1S(N)(=O)=O [Pazopanib hydrochloride] | 0.8743 | 0.7793 | 0.8633 | 0.9409 | 0.9056 | 0.9152 | – | –
8 | CO[C@H]1C[C@@H]2CC[C@@H](C)[C@@](O)(O2)C(=O)C(=O)N2CCCC[C@H]2C(=O)O[C@H]([C@H](C)C[C@@H]2CC[C@@H](OC(=O)C(C)(CO)CO)[C@H](OC)C2)CC(=O)[C@H](C)/C=C(\C)[C@@H](O)[C@@H](OC)C(=O)[C@H](C)C[C@H](C)/C=C/C=C/C=C/1C [Temsirolimus] | 0.7059 | 0.6733 | 0.6861 | 0.6816 | 0.7302 | 0.693 | – | –
9 | Nc1cccc2c1C(=O)N(C1CCC(=O)NC1=O)C2=O (centres unmarked) [Pomalidomide] | 0.9335 | 0.9509 | 0.9014 | 0.9444 | 0.9433 | 0.933 | – | –
10 | Cn1c(CCCC(=O)O)nc2cc(N(CCCl)CCCl)ccc21 [Bendamustine hydrochloride] | 0.8888 | 0.9725 | 0.935 | 1.01 | 0.9036 | 0.899 | – | –
11 | Nc1cccc2c1CN(C1CCC(=O)NC1=O)C2=O (centres unmarked) [Lenalidomide] | 0.9659 | 1.021 | 0.9664 | 0.9115 | 1.009 | 0.8902 | – | –
12 | CN(N=O)C(=O)N[C@@H](C=O)[C@@H](O)[C@H](O)[C@H](O)CO [Streptozocin] | 1.06 | 1.011 | 0.905 | 0.9729 | 1.036 | 0.9955 | – | –
13 | CO[C@H]1C[C@@H]2CC[C@@H](C)[C@@](O)(O2)C(=O)C(=O)N2CCCC[C@H]2C(=O)O[C@H]([C@H](C)C[C@@H]2CC[C@@H](O)[C@H](OC)C2)CC(=O)[C@H](C)/C=C(\C)[C@@H](O)[C@@H](OC)C(=O)[C@H](C)C[C@H](C)/C=C/C=C/C=C/1C [Rapamycin] | 0.7003 | 0.7403 | 0.7222 | 0.6232 | 0.772 | 0.7575 | – | –
14 | NC(=O)NO [Hydroxyurea] | 0.9496 | 0.9632 | 0.9723 | 0.9871 | 1.074 | 0.9675 | – | –
15 | Nc1nc2[nH]cc(CCc3ccc(C(=O)N[C@@H](CCC(=O)O)C(=O)O)cc3)c2c(=O)[nH]1 [Pemetrexed disodium salt] | 0.9118 | 0.9424 | 1.886 | 0.9953 | 0.9455 | 1.933 | – | –
16 | CC[C@@]1(O)C(=O)OCc2c1cc1n(c2=O)Cc2cc3c(CN(C)C)c(O)ccc3nc2-1 [topotecan hydrochloride, reference compound] | – | – | – | – | – | – | at least a two-fold increase in drug resistance | –
17 | COc1cc(Nc2c(C#N)cnc3cc(OCCCN4CCN(C)CC4)c(OC)cc23)c(Cl)cc1Cl [Bosutinib] | 1.048 | 1.013 | 1.477 | 1.022 | 1.04 | 1.608 | – | –
18 | O=P1(N(CCCl)CCCl)NCCCO1 (centres unmarked) [Cyclophosphamide] | – | – | – | – | – | – | – | 0.857 and 0.9632 and 0.9808 and 0.899 and 1.019 and 0.881
19 | CNNCc1ccc(C(=O)NC(C)C)cc1 [Procarbazine] | 1.003 | 1.042 | 0.9825 | 0.9328 | 1.046 | 0.9303 | – | –
20 | N#Cc1ccc(C(c2ccc(C#N)cc2)n2cncn2)cc1 [Letrozole] | 0.9923 | 0.9536 | 0.9791 | 0.9454 | 1.057 | 0.8412 | – | –
21 | COc1c2occc2cc2ccc(=O)oc12 [Methoxsalen] | 0.9521 | 0.971 | 0.7883 | 0.8888 | 0.9485 | 0.9406 | – | –
